Test results as given in patent publication US11006631B2, “Substituted pyrimidinyloxy pyridine derivatives as herbicides” (FMC Corporation, priority 2015, dated 2021).

How the values were obtained:
Format in all cases: in vivo
[1] = system: ryegrass, Italian (Italian ryegrass, Lolium multiflorum); assay: Test A preemergence, ryegrass, Italian; conditions: 0 to 100 scale
Text: Seeds of plant species selected from bamyardgrass (Echinochloa crus-galli), kochia (Kochia scoparia), ragweed (common ragweed, Ambrosia elatior), ryegrass, Italian (Italian ryegrass, Lolium multiflorum), foxtail, giant (giant foxtail, Setaria faberii), pigweed (Amaranthus retroflexus), crabgrass, large (large crabgrass, Digitaria sanguinalis), momingglory (Ipomoea spp.), velvetleaf (Abutilon theophrasti), wheat (Triticum aestivum), and corn (Zea mays) were planted into a blend of loam soil and sand and treated preemergence with a directed soil spray using test chemicals formulated in a non-phytotoxic solvent mixture which included a surfactant. At the same time, plants selected from these crop and weed species and also blackgrass (Alopecurus myosuroides), and galium (catchweed bedstraw, Galium aparine) were planted in pots containing the same blend of loam soil and sand and treated with postemergence applications of test chemicals formulated in the same manner. Plants ranged in height from 2 to 10 cm and were in the one- to two-leaf stage for the postemergence treatment. Treated plants and untreated controls were maintained in a greenhouse for approximately 10 days, after which time all treated plants were compared to untreated controls and visually evaluated for injury. Plant response ratings, summarized in Table A, are based on a 0 to 100 scale where 0 is no effect and 100 is complete control. A dash (-) response means no test result.

[2] = system: johnsongrass (Sorghum halepense); assay: Test C postemergence, johnsongrass
Text: (§1) Seeds of plant species selected from blackgrass (Alopecurus myosuroides), ryegrass, Italian (Italian ryegrass, Lolium multiflorum), wheat (winter wheat, Triticum aestivum), galium (catchweed bedstraw, Galium aparine), corn (Zea mays), crabgrass, large (large crabgrass, Digitaria sanguinalis), foxtail, giant (giant foxtail, Setaria faberii), lambsquarters (Chenopodium album), morningglory (Ipomoea coccinea), nutsedge, yellow (yellow nutsedge, Cyperus esculentus), pigweed (Amaranthus retroflexus), johnsongrass (Sorghum halepense), ragweed (common ragweed, Ambrosia elatior), soybean (Glycine max), barnyardgrass (Echinochloa crus-galli), oilseed rape (Brassica napus), waterhemp (common waterhemp, Amaranthus rudis), chickweed (common chickweed, Stellaria media), oat, wild (wild oat, Avena fatua), kochia (Kochia scoparia), and velvetleaf (Abutilon theophrasti) were planted in pots containing Redi-Earth® planting medium (Scotts Company, 14111 Scottslawn Road, Marysville, Ohio 43041) comprising spaghnum peat moss, vermiculite, wetting agent and starter nutrients and treated with postemergence applications of a test chemical formulated in a non-phytotoxic solvent mixture which included a surfactant. Plants ranged in height from 2 to 18 cm (1- to 4-leaf stage) for postemergence treatments. Treated plants and controls were maintained in a greenhouse for 13 to 15 days, after which time all species were compared to controls and visually evaluated. Plant response ratings, summarized in Table C, are based on a scale of 0 to 100 where 0 is no effect and 100 is complete control. A dash (-) response means no test result.

[3] = system: waterhemp (common waterhemp, Amaranthus rudis); assay: Test C postemergence, waterhemp
Text: as §1

[4] = system: wheat (Triticum aestivum); assay: Test A postemergence, wheat; conditions: 0 to 100 scale
In short: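 Plants are sown in a loam soil and sand blend, then treated with formulated compound either preemergence by directed soil spray or postemergence at one- to two-leaf stage. After approximately 10 days, injury is judged visually against untreated controls using a 0 to 100 control scale.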

## FC(F)c1cc(-c2ncccc2Oc2ncc(Cl)cn2)on1 [Compound 5, 5-chloro-2-[[2-[3-(difluoromethyl)-5-isoxazolyl]-3-pyridinyl]oxy]pyrimidine]
[1]; 31 g ai/ha
  Plant response rating, Ryegrass, Italian: 0
[1]; 125 g ai/ha
  Plant response rating, Ryegrass, Italian: 0
[2]; 16 g ai/ha
  Plant response rating, Johnsongrass: 0
[2]; 31 g ai/ha
  Plant response rating, Johnsongrass: 0
[2]; 62 g ai/ha
  Plant response rating, Johnsongrass: 5
[2]; 125 g ai/ha
  Plant response rating, Johnsongrass: 10
[3]; 16 g ai/ha
  Plant response rating, Waterhemp: 60
[3]; 31 g ai/ha
  Plant response rating, Waterhemp: 65
[3]; 62 g ai/ha
  Plant response rating, Waterhemp: 75
[3]; 125 g ai/ha
  Plant response rating, Waterhemp: 85
[4]; 31 g ai/ha
  Plant response rating, Wheat: 0
[4]; 125 g ai/ha
  Plant response rating, Wheat: 10
